Columns and labels:
Assay type in all cases: biochemical
JAK2 = JAK2 (Homo sapiens (Human), UniProt O60674); assay: JAK kinase assay (KINASE-GLO luminescent), JAK2 enzyme; settings: JAK2 enzyme 10 nM, Abl peptide substrate
Procedure: All compounds were initially prepared as 10 mM stocks in anhydrous dimethylsulfoxide (DMSO). A 20 μL aliquot of the 10 mM solutions was transferred to individual wells in column 1 of a 96-well polypropylene microtiter plate (Corning #3363) and diluted with DMSO to give a final compound concentration of 4 mM. Test compounds were then serially diluted 1:5 in DMSO for an 11-point concentration response and further diluted in the assay buffer bringing all compound concentrations to a final range of 100 μM to […] in 2.5% DMSO. The assay was performed in white 96-well, flat-bottom, half-area, non-binding assay plate (Corning #3642) in assay buffer consisting of 20 mM HEPES (pH 7.5), 10 mM MgCl2*6H2O, 100 μM sodium orthovanadate, 0.05% CHAPS and 0.1% bovine serum albumin. A 10 μL aliquot of compound from each well of the intermediate dilution plate and 20 μL of a 2× substrate/enzyme solution containing acceptor substrate (800 nM RSK2 peptide […] (SEQ ID NO: 1)), ROCK2 enzyme (10 nM), or ROCK1 enzyme, and 1,4-Dithiothreitol (DTT, 2 uM) were added to all wells. The reaction was initiated by the addition of 10 μL of 4× stock solution ATP (2 μM). Reactions were thoroughly mixed manually, covered, and allowed to incubate at room temperature for 75 min. Protein kinase activity was quantitated using Promega's KINASE-GLO™ luminescent Kinase Assay Kit according to the manufacturer's directions. ATP concentrations remaining in Test wells following the termination of the enzymatic reaction were compared against control wells containing equivalent amounts of DMSO containing no inhibitor (CTRL). […] Percent of Control (POC) values were determined for each concentration of compound tested according to the equation: […]
IC50 values were calculated using the following 4-parameter logistic curve-fitting algorithm:
Compounds were prepared in the exact same manner as described in the ROCK Kinase Assay with the exception to the substrate and enzyme. […]

TYK2 = TYK2 (Homo sapiens (Human), UniProt P29597); assay: JAK kinase assay (KINASE-GLO luminescent), TYK2 enzyme; settings: TYK2 enzyme 10 nM, Abl peptide substrate
TYK2, sequence (P29597 whole entry, species assumed): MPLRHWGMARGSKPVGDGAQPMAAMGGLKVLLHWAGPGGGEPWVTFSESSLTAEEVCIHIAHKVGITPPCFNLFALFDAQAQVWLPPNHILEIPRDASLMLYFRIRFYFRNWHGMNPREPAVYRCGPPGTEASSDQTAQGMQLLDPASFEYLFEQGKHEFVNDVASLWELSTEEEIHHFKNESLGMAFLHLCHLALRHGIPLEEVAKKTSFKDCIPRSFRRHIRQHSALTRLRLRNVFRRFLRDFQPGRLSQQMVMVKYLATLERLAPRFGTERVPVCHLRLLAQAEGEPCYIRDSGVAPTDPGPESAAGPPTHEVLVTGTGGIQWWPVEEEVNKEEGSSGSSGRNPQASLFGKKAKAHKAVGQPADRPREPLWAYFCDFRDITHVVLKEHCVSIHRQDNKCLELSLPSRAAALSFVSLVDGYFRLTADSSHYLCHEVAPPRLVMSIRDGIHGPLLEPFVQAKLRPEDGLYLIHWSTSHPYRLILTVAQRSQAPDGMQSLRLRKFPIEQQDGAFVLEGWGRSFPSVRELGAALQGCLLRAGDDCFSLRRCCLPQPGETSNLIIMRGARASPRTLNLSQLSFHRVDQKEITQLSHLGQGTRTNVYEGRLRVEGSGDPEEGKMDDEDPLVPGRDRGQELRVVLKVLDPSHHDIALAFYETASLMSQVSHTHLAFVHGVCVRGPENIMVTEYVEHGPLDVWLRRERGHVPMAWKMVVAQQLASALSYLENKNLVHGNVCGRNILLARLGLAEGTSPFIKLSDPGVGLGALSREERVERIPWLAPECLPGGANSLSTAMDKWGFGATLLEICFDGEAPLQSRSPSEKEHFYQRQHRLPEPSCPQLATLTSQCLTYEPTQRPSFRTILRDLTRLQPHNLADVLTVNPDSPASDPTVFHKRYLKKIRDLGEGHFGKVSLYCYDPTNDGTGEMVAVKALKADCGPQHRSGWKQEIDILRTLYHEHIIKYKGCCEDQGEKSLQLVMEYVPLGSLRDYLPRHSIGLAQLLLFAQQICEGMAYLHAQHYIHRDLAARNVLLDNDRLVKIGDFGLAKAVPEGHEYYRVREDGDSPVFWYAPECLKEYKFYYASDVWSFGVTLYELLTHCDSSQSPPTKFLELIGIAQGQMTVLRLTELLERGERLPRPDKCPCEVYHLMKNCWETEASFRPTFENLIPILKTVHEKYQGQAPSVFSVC
Outline: (§1)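 Kinase-Glo luminescence measures ATP remaining after 75 min at room temperature; ATP 2 μM in 4× stock. 11-point 1:5 dilutions, 2.5% DMSO final. Percent of DMSO control per concentration, IC50 by 4-parameter logistic fit.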

JAK1 = JAK1 (Homo sapiens (Human), UniProt P23458); assay: JAK kinase assay (KINASE-GLO luminescent), JAK1 enzyme; settings: JAK1 enzyme 10 nM, Abl peptide substrate
JAK1, sequence (P23458 whole entry, species assumed): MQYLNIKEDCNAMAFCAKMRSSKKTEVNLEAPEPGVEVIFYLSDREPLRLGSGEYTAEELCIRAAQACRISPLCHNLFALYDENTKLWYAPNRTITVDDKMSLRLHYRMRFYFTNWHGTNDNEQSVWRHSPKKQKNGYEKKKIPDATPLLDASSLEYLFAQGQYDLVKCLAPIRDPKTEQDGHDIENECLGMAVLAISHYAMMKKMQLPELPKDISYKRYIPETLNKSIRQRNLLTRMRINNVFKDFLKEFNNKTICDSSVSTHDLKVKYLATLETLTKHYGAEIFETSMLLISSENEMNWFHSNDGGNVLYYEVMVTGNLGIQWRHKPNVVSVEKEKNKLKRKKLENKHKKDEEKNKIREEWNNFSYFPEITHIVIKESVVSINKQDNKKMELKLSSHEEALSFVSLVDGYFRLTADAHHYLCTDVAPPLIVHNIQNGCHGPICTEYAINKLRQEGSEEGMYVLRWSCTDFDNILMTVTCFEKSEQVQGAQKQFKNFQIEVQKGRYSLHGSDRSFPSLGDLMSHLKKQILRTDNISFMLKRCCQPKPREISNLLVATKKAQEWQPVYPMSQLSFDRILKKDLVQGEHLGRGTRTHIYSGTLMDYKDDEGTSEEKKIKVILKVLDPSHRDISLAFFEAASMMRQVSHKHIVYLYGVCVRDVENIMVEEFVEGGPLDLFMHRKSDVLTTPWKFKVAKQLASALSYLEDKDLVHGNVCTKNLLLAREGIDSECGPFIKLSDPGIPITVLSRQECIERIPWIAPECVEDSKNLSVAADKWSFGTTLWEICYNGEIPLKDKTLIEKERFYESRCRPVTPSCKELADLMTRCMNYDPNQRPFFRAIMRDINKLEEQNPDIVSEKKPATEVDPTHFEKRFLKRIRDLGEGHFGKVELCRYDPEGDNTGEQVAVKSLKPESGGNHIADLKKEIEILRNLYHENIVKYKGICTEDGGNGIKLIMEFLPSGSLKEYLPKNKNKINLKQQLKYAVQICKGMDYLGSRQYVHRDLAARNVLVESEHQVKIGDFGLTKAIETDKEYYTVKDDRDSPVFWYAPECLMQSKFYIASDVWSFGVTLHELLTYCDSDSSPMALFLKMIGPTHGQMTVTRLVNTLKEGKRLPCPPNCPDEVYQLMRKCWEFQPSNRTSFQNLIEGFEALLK
Outline: as §1

JAK2, sequence (O60674 whole entry, species assumed): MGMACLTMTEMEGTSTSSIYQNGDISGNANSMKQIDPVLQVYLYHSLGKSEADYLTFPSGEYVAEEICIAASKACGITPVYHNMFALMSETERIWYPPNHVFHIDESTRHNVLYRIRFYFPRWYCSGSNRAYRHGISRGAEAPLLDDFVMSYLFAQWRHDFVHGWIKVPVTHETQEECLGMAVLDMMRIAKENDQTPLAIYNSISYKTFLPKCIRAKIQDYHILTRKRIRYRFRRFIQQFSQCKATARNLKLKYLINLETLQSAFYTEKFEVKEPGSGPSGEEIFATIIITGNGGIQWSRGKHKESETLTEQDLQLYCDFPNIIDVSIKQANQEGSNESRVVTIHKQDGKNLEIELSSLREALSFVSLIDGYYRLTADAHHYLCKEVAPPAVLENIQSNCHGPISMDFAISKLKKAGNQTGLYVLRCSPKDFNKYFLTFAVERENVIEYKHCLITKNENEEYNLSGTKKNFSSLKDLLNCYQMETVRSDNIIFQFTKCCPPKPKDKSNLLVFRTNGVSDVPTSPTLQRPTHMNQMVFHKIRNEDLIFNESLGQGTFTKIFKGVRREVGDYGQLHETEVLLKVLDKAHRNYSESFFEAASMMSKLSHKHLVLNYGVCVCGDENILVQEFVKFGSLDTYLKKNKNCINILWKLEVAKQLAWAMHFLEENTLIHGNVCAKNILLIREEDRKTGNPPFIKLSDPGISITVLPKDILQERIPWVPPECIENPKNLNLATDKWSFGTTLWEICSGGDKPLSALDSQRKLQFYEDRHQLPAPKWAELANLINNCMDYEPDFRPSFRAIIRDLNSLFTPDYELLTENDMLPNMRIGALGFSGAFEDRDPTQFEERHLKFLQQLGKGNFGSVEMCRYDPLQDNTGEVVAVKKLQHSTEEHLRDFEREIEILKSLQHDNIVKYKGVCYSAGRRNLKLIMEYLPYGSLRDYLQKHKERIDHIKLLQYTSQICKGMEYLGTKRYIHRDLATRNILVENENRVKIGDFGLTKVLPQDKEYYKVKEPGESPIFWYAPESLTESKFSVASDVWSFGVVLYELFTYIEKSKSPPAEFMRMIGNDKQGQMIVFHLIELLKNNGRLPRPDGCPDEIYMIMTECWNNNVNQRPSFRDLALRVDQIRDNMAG

Row | IC50 (JAK2) [nM] | IC50 (TYK2) [nM] | IC50 (JAK1) [nM] | Compound
1 | < 50 |  |  | Cc1cc(Nc2ncc(C)c(N3CC(C#N)C3)n2)sn1 [E7]
2 |  | < 100 | < 100 | Cc1cnc(Nc2ccc(N3CCOCC3)nc2)nc1N1CC(CCC#N)C1 [E216-S]
3 |  | < 50 | < 50 | Cc1cnc(Nc2cccnc2)nc1N1CC(CC#N)(N2CCN3CCCC[C@H]3C2)C1 [E216-T]
4 |  | < 50 | < 100 | Cc1cnc(Nc2ccccc2)nc1N1CC(CC#N)(N2CCN(C)CC2)C1 [E216-V]
5 |  | < 10 | < 10 | Cc1cnc(Nc2ccc3c(c2)CN(C)C3)nc1N1CC(CC#N)(N2CCN3C[C@H](F)C[C@H]3C2)C1 [E216]
6 |  | < 10 | < 5 | Cc1cnc(Nc2cnn(C)c2)nc1C1CC(C)(NC(=O)[C@@H]2CC2(F)F)C1 (some centres unmarked) [E279]
7 |  | < 400 | < 400 | Cc1cc(Nc2ncc(C)c(N3CC(C)(CNC(=O)C4CN(C)C4)C3)n2)sn1 [E280]
8 |  | < 50 | < 100 | Cc1cc(Nc2ncc(C)c(N3CC(CC#N)(NC(=O)Cc4cccnc4)C3)n2)sn1 [E281]
9 |  | < 100 | < 100 | Cc1cc(Nc2ncc(C)c(N3CC(C)(CNC(=O)C4CN(C(=O)OC(C)(C)C)CC4(F)F)C3)n2)sn1 (centres unmarked) [E283]
10 |  | < 200 | < 100 | Cc1cc(Nc2ncc(C)c(N3CC(C)(CNC(=O)C4CCN(C(=O)OC(C)(C)C)CC4(F)F)C3)n2)sn1 (centres unmarked) [E284]
11 |  | < 150 | < 100 | Cc1cc(Nc2ncc(C)c(N3CC(C)(CNC(=O)C4CCNCC4(F)F)C3)n2)sn1 (centres unmarked) [E285]
12 |  | < 50 | < 50 | Cc1cc(Nc2ncc(C)c(N3CC(C)(CNC(=O)C4CNCC4(F)F)C3)n2)sn1 (centres unmarked) [E286]
13 |  | < 50 | < 50 | COc1ccc(CNC2(CC#N)CN(c3nc(Nc4cc(C)ns4)ncc3C)C2)cc1 [E288, 2-(3-((4-methoxybenzyl)amino)-1-(5-methyl-2-((3-methylisothiazol-5-yl)amino)pyrimidin-4-yl)azetidin-3-yl)acetonitrile]
14 |  | < 100 | < 150 | Cc1cc(Nc2ncc(C)c(N3CC(N)(CC#N)C3)n2)sn1 [E289, 2-(3-amino-1-(5-methyl-2-((3-methylisothiazol-5-yl)amino)pyrimidin-4-yl)azetidin-3-yl)acetonitrile]
15 |  | < 10 | < 10 | Cc1cc(Nc2ncc(C)c(N3CC(CC#N)(NC(=O)[C@@H]4CC4(F)F)C3)n2)sn1 [E290, (S)—N-(3-(cyanomethyl)-1-(5-methyl-2-((3-methylisothiazol-5-yl)amino)pyrimidin-4-yl)azetidin-3-yl)-2,2-difluorocyclopropane-1-carboxamide]
16 |  | < 10 | < 20 | Cc1cc(Nc2ncc(C)c(N3CC(CC#N)(NS(C)(=O)=O)C3)n2)sn1 [E291, N-(3-(cyanomethyl)-1-(5-methyl-2-((3-methylisothiazol-5-yl)amino)pyrimidin-4-yl)azetidin-3-yl)methanesulfonamide]
17 |  | < 1000 | < 5000 | Cc1cc(N(c2ncc(C)c(N3CC(CC#N)(NS(C)(=O)=O)C3)n2)S(C)(=O)=O)sn1 [E292]
18 |  | < 20 | < 20 | Cc1cc(Nc2ncc(C)c(N3CC(CC#N)(NC(=O)NCC(F)(F)F)C3)n2)sn1 [E293, 1-(3-(cyanomethyl)-1-(5-methyl-2-((3-methylisothiazol-5-yl)amino)pyrimidin-4-yl)azetidin-3-yl)-3-(2,2,2-trifluoroethyl)urea]
19 |  | < 10 | < 20 | Cc1cc(Nc2ncc(C)c(N3CC(CC#N)(NCc4ccc(F)cc4F)C3)n2)sn1 [E295, 2-(3-((2,4-difluorobenzyl)amino)-1-(5-methyl-2-((3-methylisothiazol-5-yl)amino)pyrimidin-4-yl)azetidin-3-yl)acetonitrile]
20 |  | < 20 | < 20 | Cc1cc(Nc2ncc(C)c(N3CC(CC#N)(NC(=O)c4ccccn4)C3)n2)sn1 [E296]
21 |  | < 20 | < 50 | Cc1cc(Nc2ncc(C)c(N3CC(CC#N)(NC(=O)C4CCCC4)C3)n2)sn1 [E297]
22 |  | < 50 | < 50 | Cc1cc(Nc2ncc(C)c(N3CC(CC#N)(NC(=O)c4ccncc4)C3)n2)sn1 [E298]
23 |  | < 20 | < 20 | Cc1cc(Nc2ncc(C)c(N3CC(CC#N)(NC(=O)Cc4ccccc4F)C3)n2)sn1 [E300]
24 |  | < 20 | < 50 | CCS(=O)(=O)NC1(CC#N)CN(c2nc(Nc3cc(C)ns3)ncc2C)C1 [E301]
25 |  | < 1000 | < 5000 | CCS(=O)(=O)NC1(CC#N)CN(c2nc(N(c3cc(C)ns3)S(=O)(=O)CC)ncc2C)C1 [E302]
26 |  | < 30 | < 20 | Cc1cc(Nc2ncc(C)c(N3CC(CC#N)(NC(=O)c4cccnc4)C3)n2)sn1 [E303]

Row | IC50 (JAK2) [nM] | IC50 (TYK2) [nM] | IC50 (JAK1) [nM] | Compound
27 |  | < 10 | < 10 | Cc1cc(Nc2ncc(C)c(N3CC(CC#N)(NC(=O)c4cccc(F)c4)C3)n2)sn1 [E304]
28 |  | > 2000 | > 1500 | Cc1cnc(Nc2cnn(C)c2)nc1N1CC(CC#N)(N[C@H]2CC[C@H](NC(=O)OC(C)(C)C)C2)C1 [E305]
29 |  | < 60 | < 120 | Cc1cnc(Nc2cnn(C)c2)nc1N1CC(CC#N)(N[C@H]2CC[C@H](NS(C)(=O)=O)C2)C1 [E306]
30 |  | < 100 | < 20 | Cc1cnc(Nc2cnn(C)c2)nc1N1CC(C)(NC(=O)c2cccc(F)c2)C1 [E307]
31 |  | < 50 | < 100 | Cc1cnc(Nc2ccc(CN(C)C)cc2)nc1N1CC(C)(NC(=O)c2cccc(F)c2)C1 [E308]
32 |  | < 20 | < 10 | Cc1cc(Nc2ncc(C)c(N3CC(C)(NC(=O)c4cccc(F)c4)C3)n2)sn1 [E309]
33 |  | < 50 | < 20 | Cc1cnc(Nc2cccc(CN(C)C)c2)nc1N1CC(C)(NC(=O)c2cccc(F)c2)C1 [E310]
34 |  | < 50 | < 50 | Cc1cnc(Nc2ccc(N3CCOCC3)cc2)nc1N1CC(C)(NC(=O)c2cccc(F)c2)C1 [E311]
35 |  | < 10 | < 10 | Cc1cc(Nc2ncc(C)c(N3CC(CC#N)(NC(=O)c4cccc(F)c4F)C3)n2)sn1 [E312]
36 |  | < 50 | < 20 | Cc1cc(Nc2ncc(C)c(N3CC(CC#N)(NC(=O)c4ccc(F)c(F)c4)C3)n2)sn1 [E313]
37 |  | < 10 | < 10 | Cc1cc(Nc2ncc(C)c(N3CC(CC#N)(NC(=O)c4cccc(Cl)c4)C3)n2)sn1 [E314]
38 |  | < 20 | < 10 | Cc1cc(Nc2ncc(C)c(N3CC(CC#N)(NC(=O)c4cccc(C(F)(F)F)c4)C3)n2)sn1 [E315]
39 |  | < 20 | < 30 | Cc1cc(Nc2ncc(C)c(N3CC(CC#N)(NC(=O)c4cc(F)cc(F)c4C)C3)n2)sn1 [E317]
40 |  | < 10 | < 10 | CCC1(NC(=O)c2cccc(F)c2)CN(c2nc(Nc3cc(C)ns3)ncc2C)C1 [E318B]
41 |  | < 50 | < 10 | CCC1(NC(=O)c2cccc(F)c2)CN(c2nc(Nc3cnn(C)c3)ncc2C)C1 [E318C]
42 |  | < 30 | < 50 | Cc1cc(Nc2ncc(C)c(N3CC(CC#N)(NC(=O)c4cccc(F)c4C)C3)n2)sn1 [E318]
43 |  | < 10 | < 10 | Cc1cc(Nc2ncc(C)c(N3CC(CC#N)(NCc4cccc(Cl)c4)C3)n2)sn1 [E350]
44 |  | < 50 | < 20 | Cc1cnc(Nc2cnn(C)c2)nc1N1CC(CC#N)(NCc2cccc(Cl)c2)C1 [E351]
45 |  | < 50 | < 100 | Cc1cc(Nc2ncc(C)c(N3CC(CC#N)(NC(C)c4cccc(F)c4)C3)n2)sn1 (centres unmarked) [E352]
46 |  | < 50 | < 20 | Cc1cc(Nc2ncc(C)c(N3CC(CC#N)(NC(=O)c4cncc(F)c4)C3)n2)sn1 [E353]
47 |  | < 50 | < 50 | Cc1cc(Nc2ncc(C)c(N3CC(CC#N)(NC(=O)C4CCCCC4(F)F)C3)n2)sn1 (centres unmarked) [E354]
48 |  | < 10 | < 10 | Cc1cc(Nc2ncc(C)c(N3CC(CC#N)(NC(=O)C4CCCC(F)(F)C4)C3)n2)sn1 (centres unmarked) [E356]
49 |  | < 10 | < 20 | Cc1cc(Nc2ncc(C)c(N3CC(CC#N)(NCC4CC4(F)F)C3)n2)sn1 (centres unmarked) [E357]
50 |  | < 10 | < 10 | Cc1cc(Nc2ncc(C)c(N3CC(CC#N)(NCC4CCC(F)(F)C4)C3)n2)sn1 (centres unmarked) [E358]
51 |  | < 10 | < 10 | Cc1cc(Nc2ncc(C)c(N3CC(CC#N)(NCC4CCC(F)C4)C3)n2)sn1 (centres unmarked) [E359]
